In patent US20220378706A1, “PHARMACEUTICAL COMPOSITION COMPRISING PDE9 INHIBITOR” (Eisai R&D Management Co., Ltd., priority 2017, published 2022):
Like-named read-outs stand apart in the source and are kept apart here.

Assay: Multiple ascending dose study: plasma pharmacokinetics
Type: in vivo
Conditions: human, po; for Tmax: read-out: tmax Median
Procedure: Four sequential cohorts of healthy participants (≥50 years and ≤85 years old) were treated with multiple ascending doses of Compound A up to the maximum tolerated dose (MTD). A total of 6 participants per cohort were randomized to Compound A. Proposed doses of Compound A were:
Participants received Compound A capsules, orally once daily (QD) on Days 1 to 14 after an overnight fast of at least 10 hours. Compound A was administered orally with 240 milliliter (mL) (8 fluid ounces) of water.
1) Maximum drug concentration (Cmax) [Time Frame: Day 1 and Day 14]
Blood samples were collected on Day 1 at predose and postdose 0.5 (30 minutes), 1, 1.5, 2, 3, 4, 5, 6, 8, 12, and 18 hours; Day 14 (at predose and postdose 0.5, 1, 1.5, 2, 3, 4, 5, 6, 8, 12, and 18 hours); and Day 15 (24 hours postdose from Day 14).
2) Mean time to reach maximum (peak) drug concentration (tmax) [Time Frame: Day 1 and Day 14]
4) Mean area under the concentration-time curve from zero time extrapolated to infinity (AUC(0-inf)) [Time Frame: Day 14]

Work on `COc1ncc(C)c(-c2ccc3c(c2)[nH]c(=O)c2cnn([C@H]4CCOC4)c23)c1C` [Compound A, (S)-7-(2-methoxy-3,5-dimethylpyridin-4-yl)-1-(tetrahydrofuran-3-yl)-1H-pyrazolo[4,3-c]quin olin-4(5H)-one] yielded an AUC(0-t) (5 mg, Day 1, 5 mg QD oral, read-out: AUC(0-24 h) GM (% CV)) of 344 ng·h/mL, an AUC(0-t) (5 mg, Day 1, 5 mg QD oral, read-out: AUC(0-24 h) Mean (SD)) of 352 ng·h/mL and an AUC(0-t) (5 mg, Day 1, 5 mg QD oral, read-out: AUC(0-24 h) Median) of 340 ng·h/mL. The Cmax (5 mg, Day 1, 5 mg QD oral, read-out: Cmax GM (% CV)) was 26.3 ng/mL, the Cmax (5 mg, Day 1, 5 mg QD oral, read-out: Cmax Mean (SD)) was 27.4 ng/mL and the Cmax (5 mg, Day 1, 5 mg QD oral, read-out: Cmax Median) was 26.6 ng/mL. For the same compound, the Tmax (5 mg, Day 1, 5 mg QD oral) was 4 h, the AUC(0-t) (5 mg, Day 14, 5 mg QD oral, read-out: AUC(0-24 h) GM (% CV)) was 844 ng·h/mL and the AUC(0-t) (5 mg, Day 14, 5 mg QD oral, read-out: AUC(0-24 h) Mean (SD)) was 864 ng·h/mL. It also gave an AUC(0-t) (5 mg, Day 14, 5 mg QD oral, read-out: AUC(0-24 h) Median) of 773 ng·h/mL, an AUC(0-inf) (5 mg, Day 14, 5 mg QD oral, read-out: AUC(0-inf) GM (% CV)) of 2380 ng·h/mL and an AUC(0-inf) (5 mg, Day 14, 5 mg QD oral, read-out: AUC(0-inf) Mean (SD)) of 2480 ng·h/mL. It also gave an AUC(0-inf) (5 mg, Day 14, 5 mg QD oral, read-out: AUC(0-inf) Median) of 2510 ng·h/mL, a Cmax (5 mg, Day 14, 5 mg QD oral, read-out: Cmax GM (% CV)) of 58.6 ng/mL and a Cmax (5 mg, Day 14, 5 mg QD oral, read-out: Cmax Mean (SD)) of 61.7 ng/mL. It also gave a Cmax (5 mg, Day 14, 5 mg QD oral, read-out: Cmax Median) of 49.4 ng/mL, a Tmax (5 mg, Day 14, 5 mg QD oral) of 4 h and an AUC(0-t) (10 mg, Day 1, 10 mg QD oral, read-out: AUC(0-24 h) GM (% CV)) of 781 ng·h/mL. It also gave an AUC(0-t) (10 mg, Day 1, 10 mg QD oral, read-out: AUC(0-24 h) Mean (SD)) of 784 ng·h/mL, an AUC(0-t) (10 mg, Day 1, 10 mg QD oral, read-out: AUC(0-24 h) Median) of 735 ng·h/mL and a Cmax (10 mg, Day 1, 10 mg QD oral, read-out: Cmax GM (% CV)) of 65.5 ng/mL. It also gave a Cmax (10 mg, Day 1, 10 mg QD oral, read-out: Cmax Mean (SD)) of 66.2 ng/mL, a Cmax (10 mg, Day 1, 10 mg QD oral, read-out: Cmax Median) of 65.8 ng/mL and a Tmax (10 mg, Day 1, 10 mg QD oral) of 2 h. For the same compound, the AUC(0-t) (10 mg, Day 14, 10 mg QD oral, read-out: AUC(0-24 h) GM (% CV)) was 1900 ng·h/mL, the AUC(0-t) (10 mg, Day 14, 10 mg QD oral, read-out: AUC(0-24 h) Mean (SD)) was 1940 ng·h/mL and the AUC(0-t) (10 mg, Day 14, 10 mg QD oral, read-out: AUC(0-24 h) Median) was 1980 ng·h/mL. The AUC(0-inf) (10 mg, Day 14, 10 mg QD oral, read-out: AUC(0-inf) GM (% CV)) was 5100 ng·h/mL, the AUC(0-inf) (10 mg, Day 14, 10 mg QD oral, read-out: AUC(0-inf) Mean (SD)) was 5260 ng·h/mL and the AUC(0-inf) (10 mg, Day 14, 10 mg QD oral, read-out: AUC(0-inf) Median) was 5360 ng·h/mL. The Cmax (10 mg, Day 14, 10 mg QD oral, read-out: Cmax GM (% CV)) was 135 ng/mL, the Cmax (10 mg, Day 14, 10 mg QD oral, read-out: Cmax Mean (SD)) was 137 ng/mL and the Cmax (10 mg, Day 14, 10 mg QD oral, read-out: Cmax Median) was 144 ng/mL. The Tmax (10 mg, Day 14, 10 mg QD oral) was 1.5 h, the AUC(0-t) (25 mg, Day 1, 25 mg QD oral, read-out: AUC(0-24 h) GM (% CV)) was 1650 ng·h/mL and the AUC(0-t) (25 mg, Day 1, 25 mg QD oral, read-out: AUC(0-24 h) Mean (SD)) was 1670 ng·h/mL. The AUC(0-t) (25 mg, Day 1, 25 mg QD oral, read-out: AUC(0-24 h) Median) was 1700 ng·h/mL, the Cmax (25 mg, Day 1, 25 mg QD oral, read-out: Cmax GM (% CV)) was 125 ng/mL and the Cmax (25 mg, Day 1, 25 mg QD oral, read-out: Cmax Mean (SD)) was 129 ng/mL. It also gave a Cmax (25 mg, Day 1, 25 mg QD oral, read-out: Cmax Median) of 136 ng/mL, a Tmax (25 mg, Day 1, 25 mg QD oral) of 3.01 h and an AUC(0-t) (25 mg, Day 14, 25 mg QD oral, read-out: AUC(0-24 h) GM (% CV)) of 5140 ng·h/mL. For the same compound, the AUC(0-t) (25 mg, Day 14, 25 mg QD oral, read-out: AUC(0-24 h) Mean (SD)) was 5210 ng·h/mL, the AUC(0-t) (25 mg, Day 14, 25 mg QD oral, read-out: AUC(0-24 h) Median) was 4760 ng·h/mL and the AUC(0-inf) (25 mg, Day 14, 25 mg QD oral, read-out: AUC(0-inf) GM (% CV)) was 15400 ng·h/mL. It also gave an AUC(0-inf) (25 mg, Day 14, 25 mg QD oral, read-out: AUC(0-inf) Mean (SD)) of 16200 ng·h/mL, an AUC(0-inf) (25 mg, Day 14, 25 mg QD oral, read-out: AUC(0-inf) Median) of 14000 ng·h/mL and a Cmax (25 mg, Day 14, 25 mg QD oral, read-out: Cmax GM (% CV)) of 332 ng/mL. For the same compound, the Cmax (25 mg, Day 14, 25 mg QD oral, read-out: Cmax Mean (SD)) was 336 ng/mL, the Cmax (25 mg, Day 14, 25 mg QD oral, read-out: Cmax Median) was 318 ng/mL and the Tmax (25 mg, Day 14, 25 mg QD oral) was 3 h. The AUC(0-t) (50 mg, Day 1, 50 mg QD oral, read-out: AUC(0-24 h) GM (% CV)) was 2970 ng·h/mL, the AUC(0-t) (50 mg, Day 1, 50 mg QD oral, read-out: AUC(0-24 h) Mean (SD)) was 3110 ng·h/mL and the AUC(0-t) (50 mg, Day 1, 50 mg QD oral, read-out: AUC(0-24 h) Median) was 3060 ng·h/mL. The Cmax (50 mg, Day 1, 50 mg QD oral, read-out: Cmax GM (% CV)) was 214 ng/mL, the Cmax (50 mg, Day 1, 50 mg QD oral, read-out: Cmax Mean (SD)) was 237 ng/mL and the Cmax (50 mg, Day 1, 50 mg QD oral, read-out: Cmax Median) was 226 ng/mL. The Tmax (50 mg, Day 1, 50 mg QD oral) was 3.53 h, the AUC(0-t) (50 mg, Day 14, 50 mg QD oral, read-out: AUC(0-24 h) GM (% CV)) was 11500 ng·h/mL and the AUC(0-t) (50 mg, Day 14, 50 mg QD oral, read-out: AUC(0-24 h) Mean (SD)) was 11800 ng·h/mL. For the same compound, the AUC(0-t) (50 mg, Day 14, 50 mg QD oral, read-out: AUC(0-24 h) Median) was 10900 ng·h/mL, the AUC(0-inf) (50 mg, Day 14, 50 mg QD oral, read-out: AUC(0-inf) GM (% CV)) was 38600 ng·h/mL and the AUC(0-inf) (50 mg, Day 14, 50 mg QD oral, read-out: AUC(0-inf) Mean (SD)) was 40700 ng·h/mL. It also gave an AUC(0-inf) (50 mg, Day 14, 50 mg QD oral, read-out: AUC(0-inf) Median) of 38100 ng·h/mL, a Cmax (50 mg, Day 14, 50 mg QD oral, read-out: Cmax GM (% CV)) of 778 ng/mL and a Cmax (50 mg, Day 14, 50 mg QD oral, read-out: Cmax Mean (SD)) of 788 ng/mL. For the same compound, the Cmax (50 mg, Day 14, 50 mg QD oral, read-out: Cmax Median) was 807 ng/mL, the Tmax (50 mg, Day 14, 50 mg QD oral) was 1.5 h and the AUC(0-t) (50 mg, Part C, 50 mg oral, read-out: AUC (0-24 h) GM (% CV)) was 10500 ng·h/mL. It also gave an AUC(0-t) (50 mg, Part C, 50 mg oral, read-out: AUC (0-24 h) Mean (SD)) of 10800 ng·h/mL and an AUC(0-t) (50 mg, Part C, 50 mg oral, read-out: AUC (0-24 h) Median) of 10600 ng·h/mL.
